Assay [1] deals with human myeloma Amo-1 cells. Kind of assay: Anti-proliferation activity against Amo-1 cells (CCK-8). The assay is classed as cell-based. As for the experimental part: 5) Evaluation of anti -proliferation activity against Amo- 1cells
Cell proliferation assays were performed using the Cell Counting Kit-8 (CCK-8) (Dojindo, CK04) according to the manufacturer’s protocol. In brief, Amo- 1 cells were cultured in RPMI1640 medium containing 10% FBS and 1% penicillin -strepto myc in.
After culturing for 24 h at 37 °C under atmosphere of 5% CO2, the cells were treated with a solution of the compound in DMSO (1 µL) at 37 °C for 72 h. A solution of the CCK-8 (10 µL) was then added to each well and the cells were incubated at 37 °C for 3 h. The absorbance at 450 nm was measured using an Infinite M200 PRO multimode microplate reader (Tecan). The data points were calculated from the average (±standard deviation) of three assays […]
(IC 50) were calculated from curves constructed by plotting cell proliferation (%) versus the log of compound […]
(1 picture or pasted object on this page, not shown here)

Assay [2] has as its target T1, β5 subunit of the human constitutive 20S proteasome (Homo sapiens, UniProt P20618+P28074).
T1 construct: human erythrocyte 20S; purchased R&D Systems, Inc; host or cells: human erythrocytes (native, purified from tissue)
Kind of assay: In vitro β5 proteasome inhibitory activity and kinetic constants (Suc-LLVY-AMC, chymotrypsin-like activity). The assay is classed as biochemical. Conditions: for K′i (apparent β5 subunit inhibitory activity): human erythrocyte 20S proteasome, chymotrypsin-like activity, 37 °C; for kinact/KI: read-out: k assoc (k2/Ki). The text has this: First, the effect of modifying the macrocycle was investigated for 1–3 by analyzing the inhibitory activity of the β5 subunit of the human constitutive 20S proteasome. […] The k 2/K i ratio represents the second-order rate constant for the reaction of the inhibitor with the target (k assoc), and it indicates the overall inhibitory potency of the inhibitor.
4) Evaluation of in vitro β5 proteasome inhibitory activity and determination of kinetic […]
In vitro proteasome inhibitory activity was measured on 96-well microtiter plates using human erythrocyte 20S proteasome (R&D Systems, Inc.) with the AK-740 Assay Kit for Drug Discovery (Biomol). Reactions were performed at 37 °C in 100 μ L volu mes containing a serial dilution of test samples, 2 μ g/mL 20S proteasome, and 100 μM Suc-L LV Y -AMC for assaying chymotrypsin-like activity, according to the manufacture’s instructions.
Fluorescence was monitored with an infinite M200 microplate reader (Tecan) equipped with 360 nm excitation and […]
The observed rate constant for inhibition, kobs, at each concentration was determined fro m the slope of a semi-logarithmic plot of inhibition versus […]
equation, k obs = k 2[I]/(K i+[I]), to obtain values for Ki and k2. The k2/Ki ratio represents the second -order rate constant for the reaction of the inhibitor with the target. S7)

Where [3] appears, read: AMO1, Amo-1 cells, 72 h, CCK-8, read-out: IC50 (cell proliferation).
Where [4] appears, read: from fit kobs = k2[I]/(Ki + [I]).
Setting [5] is: second-order rate constant, k2/Ki ratio.

Where two headings read alike, the source gives them in different places.

As for `CCCCCCCCCC(=O)N[C@@H](Cc1ccccc1)C(=O)N[C@H]1/C=C/CCNC(=O)/C=C/[C@H](C(C)C)NC1=O` [analogue 4], the IC50 in assay [1] (AMO1, 72 h, read-out: IC50 (cell proliferation)) was 0.00433 ± 0.0016 µM.
Broadly, the Ki is a measure of affinity in units of concentration, obtained from inhibition or displacement. Consider `CCCCCCCCCC(=O)N[C@@H](Cc1ccc(-c2ccccc2)cc1)C(=O)N[C@H]1/C=C/CNC(=O)/C=C/[C@H](C(C)C)NC1=O` [analogue 14], for which, in assay [1] (setting [3]), the IC50 was 0.0121 µM. Moreover, in assay [2] (setting [4]), the inhibition constant Ki stood at 0.0422 µM and the k 2 came out at 0.00428 s⁻¹. Further, the “K′i (apparent β5 subunit inhibitory activity)” value in assay [2] was 0.77 nM. For the same molecule, in assay [2] (setting [5]), the “k assoc (k2/Ki)” value was found to be 101422 s^–1 M^–1 and the kinact/KI is 101000 M⁻¹ s⁻¹.
As to `CC(C)[C@H](NC(=O)N[C@H](C(=O)N[C@H]1/C=C/CCNC(=O)/C=C/[C@H](C(C)C)NC1=O)C(C)C)C(=O)O` [Syringolin A (1), Syringolin A, reference compound], in assay [2] (as printed in text in s^–1), the “k 2” value was 3.91 × 10^–3 s^–1. Moreover, in assay [2] (setting [4]), the k 2 came out at 0.00391 s⁻¹. Besides, in assay [2], the “K′i (apparent β5 subunit inhibitory activity)” value came to 170 nM and the kinact/KI turned out to be 1770 M⁻¹ s⁻¹.
For `CCCCCCCCCC(=O)N[C@@H](Cc1ccccc1)C(=O)N[C@H]1CC/C=C/CNC(=O)/C=C/[C@H](C(C)C)NC1=O` [analogue 10], in assay [2] (setting [4]), the Ki came out at 0.527 µM and the k 2 was 0.00134 s⁻¹. In addition, in assay [2], the “K′i (apparent β5 subunit inhibitory activity)” value is listed as 79.2 nM. Besides, the kinact/KI in assay [2] (setting [5]) came out at 2550 M⁻¹ s⁻¹.
For `CCCCCCCCCC(=O)N[C@@H](Cc1ccccc1)C(=O)N[C@H]1CCCNC(=O)/C=C/[C@H](C(C)C)NC1=O` [analogue 9], in that order: 0.547 µM, 0.00365 s⁻¹, 48.2 nM and 6670 M⁻¹ s⁻¹.
With `C=CC[C@H](NC(=O)[C@H](Cc1ccccc1)NC(=O)CCCCCCCCC)C(=O)N[C@H](/C=C/C(=O)NC)C(C)C` [analogue 13], the “K′i (apparent β5 subunit inhibitory activity)” value in assay [2] is listed as more than 1000 nM. Besides, the “inhibitory activity” value in assay [2] (β5 subunit) is “no inhibitory activity”.
`CCCCCCCCCC(=O)N[C@@H](Cc1ccccc1)C(=O)N[C@H]1/C=C/CNC(=O)/C=C/[C@H](C(C)C)NC1=O` [analogue 8]: the IC50 in assay [1] (setting [3]) was 0.0263 ± 0.0093 µM. Further, the “K i, decrease in affinity relative to 4” value in assay [2] (decrease relative to 4) is 6.3 fold. Moreover, in assay [2] (setting [4]), the Ki turned out to be 0.432 µM and the k 2 turned out to be 0.00551 s⁻¹. Besides, the “k 2 relative to 4” value in assay [2] (greater than that of the 12-membered 4) was 1.29 fold. Also, the “K′i (apparent β5 subunit inhibitory activity)” value in assay [2] is 20.6 nM. Also, the kinact/KI in assay [2] (setting [5]) is 12800 M⁻¹ s⁻¹.
As for `CC(C)[C@H](NC(=O)N[C@H](C(=O)N[C@H]1C/C=C/CNC(=O)/C=C/[C@H](C(C)C)NC1=O)C(C)C)C(=O)O` [Isosyringolin A (3), Isosyringolin A], the k 2 in assay [2] (setting [4]) was 0.00339 s⁻¹. In assay [2], the “K′i (apparent β5 subunit inhibitory activity)” value is listed as 590 nM and the kinact/KI was 166 M⁻¹ s⁻¹.
`CCCCCCCCCC(=O)N[C@@H](Cc1ccccc1)C(=O)N[C@H]1C/C=C/CCNC(=O)/C=C/[C@H](C(C)C)NC1=O` [analogue 11]: in assay [2] (setting [4]), the Ki stood at 1.23 µM and the k 2 stood at 0.000875 s⁻¹. Moreover, the “K′i (apparent β5 subunit inhibitory activity)” value in assay [2] came to 320 nM. Besides, the kinact/KI in assay [2] (setting [5]) was 713 M⁻¹ s⁻¹.
For `CCCCCCCCCC(=O)N[C@@H](Cc1ccccc1)C(=O)N[C@H]1CCCCCNC(=O)/C=C/[C@H](C(C)C)NC1=O` [analogue 12], in that order: 9.09 µM, 0.00203 s⁻¹, 402 nM and 224 M⁻¹ s⁻¹.

Source of the values: paper PMC5642145, “Impact of the structures of macrocyclic Michael acceptors on covalent proteasome inhibition” (Chemical Science, 2017).
